Reference: patent US10914726B2, “Method for evaluating protrusion-forming ability of cell spheroids” (priority 2017, dated 2021)

Key:
MDA-MB231 cells [1] = assay: Live/dead determination of gel-embedded cell spheroids treated with anticancer agents; format: cell-based, human; conditions: 48 hours, Batimastat 4 μM, Staurosporine 1 μM; for number of dead cells (share of cells) / Number of Dead cells / Number of Living cells: MDA-MB231 spheroid in Matrigel; for Number of Dead cells: green fluorescence cell nuclei counted; for Number of Living cells: red fluorescence cell nuclei counted
Experimental: (§1) The protrusion-forming ability of the cell spheroids of the cancer cells treated with various anticancer agents was examined. As the cancer cells, MDA-MB231 cells of a cultured cell strain established from a human breast cancer cells were used. MDA-MB 231 cells were cultured under a condition with a temperature of 37° C. and a CO2 concentration of 5 vol % in a culture medium of DMEM containing 10% FBS.
(§2) Two thousand MDA-MB 231 cells and 5 μL of 10×Spheroid Formation ECM (manufactured by Trevigen, Inc.) were mixed in a culture medium to prepare a cancer cell solution of which the final amount was adjusted to 50 μL using DMEM (phenol red free), and then 50 μL of the cancer cell solution was injected into one well of the U bottom plate for forming a cell spheroid “Prime Surface (registered trade mark) U plate” (manufactured by Sumitomo Bakelite Co., LTD.), followed by culturing the cells for 72 hours to form cell spheroids.
(§3) The culture medium was removed from the U bottom plate as much as possible by suction while paying attention not to suck the spheroids, followed by carefully adding 100 μL of Matrigel (manufactured by Corning Incorporated) to the well. The U bottom plate was allowed to stand in an incubator at 37° C. for 1 hour, and the gel was cured to construct a cell spheroid embedded in a gel.
100 μL of culture mediums containing L-Sulforaphane (final concentration: 10 μM), Batimastat (final concentration: 4 μM), Mitomycin C (final concentration: 10 μM), Paclitaxel (final concentration: 4 μM), or Staurosporine (final concentration: 1 μM) was added on the gel in which the cell spheroids were embedded, and then 0.1 μL ( 1/1000 of the culture medium amount) of “Nuclear ID green/red cell viability reagent” (manufactured by Enzo Life Science, Inc.) was further added thereto, followed by culturing them for 48 hours to infiltrate. By adding the live/dead determination reagent, the living cells were stained with red fluorescence and the dead cells were stained with green fluorescence. As a control, a cultivation in which a culture medium containing only the live/dead determination reagent was used was carried out in the same manner as the above-described cultivation except that the anticancer agents were not added.
The fluorescently labeled samples prepared in the above-described sections <Anticancer Agent Treatment and Treatment for Live/dead Determination> and <Anticancer Agent Treatment and Actin Staining> were imaged with a confocal laser microscope “FV 1200” (manufactured by Olympus Corporation). A 20-fold objective lens ([…]×20) was used to image, and the Z-slice interval was 2 μm. The total number of Z-slices was 60 to 100.
The series of plane tomographic image groups obtained by imaging the respective fluorescently labeled samples were superimposed to construct a stereoscopic image. The obtained stereoscopic image was binarized to obtain a binarized image.
For the binarized images obtained from the fluorescently labeled samples treated with the live/dead determination reagent, the number of cell nuclei of red fluorescence and green fluorescent were measured.

MDA-MB231 cells [2] = assay: Evaluation of protrusion-forming ability of cell spheroids from stereoscopic image (central sphere volume ratio); format: cell-based, human; conditions: 48 hours, L-Sulforaphane 10 μM, Batimastat 4 μM, Mitomycin C 10 μM, Paclitaxel 4 μM, Staurosporine 1 μM
Experimental: as §1, §2
as §3, with “gel. […]” for “gel.”

Structure (SMILES)	number of dead cells (share of cells) (MDA-MB231 cells [1])	Number of Dead cells (MDA-MB231 cells [1])	Number of Living cells (MDA-MB231 cells [1])	central sphere volume ratio ([volume of non-protrusion part]/[total volume of cell spheroid]) from stereoscopic image (MDA-MB231 cells [2]; FIG. 3, actin staining)	protrusion formation / protrusion-forming ability (MDA-MB231 cells [2]; stereoscopic image)	induction of cell death (MDA-MB231 cells [1]; MDA-MB231 spheroid)
CNC(=O)[C@H](Cc1ccccc1)NC(=O)[C@H](CC(C)C)[C@H](CSc1cccs1)C(=O)NO [Batimastat]	about 24%	562	1738			
CO[C@@]12[C@H](COC(N)=O)C3=C(C(=O)C(C)=C(N)C3=O)N1C[C@@H]1N[C@@H]12 [Mitomycin C]				higher central sphere volume ratio as compared with the remaining three anticancer agent-treated samples	suppressed more strongly	
CN[C@@H]1C[C@H]2O[C@@](C)([C@@H]1OC)n1c3ccccc3c3c4c(c5c6ccccc6n2c5c31)C(=O)NC4 [Staurosporine]	about 70%	1631 ± 414	576 ± 67			cell death was induced
